Test results published in patent publication US20260007133A1, “HERBICIDAL COMPOSITION COMPRISING AZINE COMPOUNDS” (BASF SE, priority 2022, published 2026).
Where two headings read alike, the source gives them in different places.

How the values were obtained:
Assay type in all cases: in vivo
[1] = tested on: Digitaria sanguinalis; assay: Greenhouse post-emergence (POST) herbicidal test on DIGSA; conditions: POST, 20 DAT
Outline: (§1)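 Greenhouse weeds, raised in pots of humus-containing loamy sand, receive a water-based spray of the actives once 3 to 15 cm tall. Damage is rated visually from 0 (none) to 100 (above-ground parts destroyed) 20 days after treatment.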

[2] = tested on: Geranium pusillum; assay: Greenhouse post-emergence (POST) herbicidal test on GERPU; conditions: for inhibition at 2 g/ha: use rate 2 gai/ha; for inhibition at 4 g/ha: use rate 4 gai/ha
Outline: as §1

[3] = tested on: Amaranthus retroflexus; assay: Greenhouse pre-emergence (PRE) herbicidal test on AMARE; conditions: Amaranthus retroflexus, pre-emergence, 480 h, PRE, 20 DAT; for inhibition at 2 g/ha: AMARE
Outline: (§2)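 Seeds were sown per species in pots of loamy sand with about 3.0% humus, treated pre-emergence, watered and hooded until rooted. Plants grew at 10-25° C or 20-35° C depending on species. Damage was scored 0-100 (100 = no emergence or above-ground parts destroyed) at 20 DAT.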

[4] = tested on: Euphorbia heterophylla; assay: Greenhouse pre-emergence (PRE) herbicidal test on EPHHL; conditions: Euphorbia heterophylla, pre-emergence
Outline: as §2

[5] = tested on: Lolium multiflorum; assay: Greenhouse pre-emergence (PRE) herbicidal test on LOLMU; conditions: Lolium multiflorum, pre-emergence; for pest or weed control at 2 g/ha: I-3 solo 2 gai/ha
Outline: as §2

[6] = tested on: Echinochloa crus-galli; assay: Greenhouse pre-emergence (PRE) herbicidal test on ECHCG; conditions: Echinochloa crus-galli, pre-emergence, PRE

COc1c(Cl)cc(F)c(F)c1Nc1nc(N)nc(C(C)(C)F)n1 [Compound I-3]
pest or weed control at 8 g/ha ([1]; Digitaria sanguinalis, post-emergence, 480 h, 8 gai/ha): 40% | inhibition at 8 g/ha ([1]; Digitaria sanguinalis, post-emergence, 480 h, DIGSA, 8 gai/ha, read-out: % activity solo application): 85% | pest or weed control at 2 g/ha ([1]; Digitaria sanguinalis, post-emergence, 480 h, DIGSA, I-3 solo 2 gai/ha): 5% | inhibition at 8 g/ha ([1]; Digitaria sanguinalis, post-emergence, 480 h, DIGSA, use rate 8 gai/ha, read-out: solo application % activity): 10% | solo application % activity ([1]; DIGSA, use rate 2 gai/ha): 0% | % activity ([2]; GERPU POST, use rate 8 gai/ha): 50% | pest or weed control at 2 g/ha ([2]; Geranium pusillum, post-emergence, 432 h, POST, GERPU, I-3 solo 2 gai/ha, 18 DAT): 25% | inhibition at 2 g/ha ([2]; Geranium pusillum, post-emergence, 480 h, GERPU POST, 20 DAT, read-out: % activity): 25% | pest or weed control at 2 g/ha ([2]; Geranium pusillum, post-emergence, 480 h, POST, 2 gai/ha, 20 DAT): 10% | pest or weed control at 8 g/ha ([2]; Geranium pusillum, post-emergence, 480 h, POST, 8 gai/ha, 20 DAT): 75% | pest or weed control at 2 g/ha ([2]; Geranium pusillum, post-emergence, 480 h, POST, GERPU, I-3 solo 2 gai/ha, 20 DAT): 20% | pest or weed control at 8 g/ha ([2]; Geranium pusillum, post-emergence, 480 h, POST, GERPU, I-3 solo 8 gai/ha, 20 DAT): 10% | inhibition at 4 g/ha ([2]; Geranium pusillum, post-emergence, 480 h, POST, GERPU, 20 DAT): 0% | inhibition at 16 g/ha ([2]; Geranium pusillum, post-emergence, 480 h, POST, GERPU, use rate 16 gai/ha, 20 DAT): 10% | inhibition at 2 g/ha ([2]; Geranium pusillum, post-emergence, GERPU POST, read-out: % activity): 30% | inhibition at 8 g/ha ([2]; Geranium pusillum, post-emergence, GERPU POST, use rate 8 gai/ha, read-out: % activity): 70% | inhibition at 2 g/ha ([2]; Geranium pusillum, post-emergence, POST, GERPU, read-out: % activity): 20% | inhibition at 4 g/ha ([2]; Geranium pusillum, post-emergence, POST, GERPU): 40% | pest or weed control at 2 g/ha ([3]; 2 gai/ha): 90% | inhibition at 2 g/ha ([3]; 2 gai/ha, read-out: % activity solo application): 60% | inhibition at 2 g/ha ([3]; use rate 2 gai/ha, read-out: solo application % activity): 60% | pest or weed control at 2 g/ha ([4]; 432 h, PRE, EPHHL, I-3 solo 2 gai/ha, 18 DAT): 15% | pest or weed control at 8 g/ha ([4]; 432 h, PRE, EPHHL, I-3 solo 8 gai/ha, 18 DAT): 75% | inhibition at 2 g/ha ([4]; 480 h, EPHHL PRE, 20 DAT, use rate 2 gai/ha, read-out: % activity): 0% | inhibition at 8 g/ha ([4]; 480 h, EPHHL PRE, 20 DAT, use rate 8 gai/ha, read-out: % activity): 50% | pest or weed control at 8 g/ha ([4]; 480 h, PRE, 8 gai/ha, 20 DAT): 50% | inhibition at 2 g/ha ([4]; 480 h, PRE, EPHHL, 2 gai/ha, 20 DAT, read-out: % activity solo application): 5% | inhibition at 8 g/ha ([4]; 480 h, PRE, EPHHL, 8 gai/ha, 20 DAT, read-out: % activity solo application): 50% | pest or weed control at 8 g/ha ([4]; 480 h, PRE, EPHHL, I-3 solo 8 gai/ha, 20 DAT): 20% | inhibition at 2 g/ha ([4]; 480 h, PRE, EPHHL, use rate 2 gai/ha, 20 DAT, read-out: solo application % activity): 10% | inhibition at 8 g/ha ([4]; 480 h, PRE, EPHHL, use rate 8 gai/ha, 20 DAT, read-out: solo application % activity): 50% | inhibition at 8 g/ha ([4]; EPHHL PRE, use rate 8 gai/ha, read-out: % activity): 55% | inhibition at 2 g/ha ([4]; PRE, EPPHL, use rate 2 gai/ha, read-out: % activity): 45% | inhibition at 8 g/ha ([4]; PRE, EPPHL, use rate 8 gai/ha, read-out: % activity): 80% | inhibition at 2 g/ha ([5]; 432 h, PRE, LOLMU, 2 gai/ha, 18 DAT, read-out: % activity solo application): 10% | inhibition at 8 g/ha ([5]; 432 h, PRE, LOLMU, 8 gai/ha, 18 DAT, read-out: % activity solo application): 70% | pest or weed control at 2 g/ha ([5]; 432 h, PRE, LOLMU, 18 DAT, read-out: % activity): 10% | pest or weed control at 8 g/ha ([5]; 432 h, PRE, LOLMU, I-3 solo 8 gai/ha, 18 DAT): 70% | inhibition at 8 g/ha ([5]; 480 h, LOLMU PRE, 20 DAT, use rate 8 gai/ha, read-out: % activity): 90% | pest or weed control at 8 g/ha ([5]; 480 h, PRE, 8 gai/ha, 20 DAT): 90% | inhibition at 8 g/ha ([5]; 480 h, PRE, LOLMU, 8 gai/ha, 20 DAT, read-out: % activity solo application): 95% | pest or weed control at 2 g/ha ([5]; 480 h, PRE, LOLMU, 20 DAT, read-out: % activity): 25% | inhibition at 2 g/ha ([5]; 480 h, PRE, LOLMU, use rate 2 gai/ha, 20 DAT, read-out: solo application % activity): 50% | inhibition at 4 g/ha ([5]; 480 h, PRE, LOLMU, use rate 4 gai/ha, 20 DAT): 80% | inhibition at 2 g/ha ([5]; 480 h, PRE, use rate 2 gai/ha, 20 DAT, read-out: % activity): 20% | inhibition at 2 g/ha ([5]; PRE, LOLMU, use rate 2 gai/ha, read-out: % activity): 40% | inhibition at 1 g/ha ([6]; 240 h, use rate 1 gai/ha, 10 DAT): 10% | inhibition at 2 g/ha ([6]; 240 h, use rate 2 gai/ha, 10 DAT, read-out: % activity): 10% | inhibition at 4 g/ha ([6]; 240 h, use rate 4 gai/ha, 10 DAT): 20% | inhibition at 8 g/ha ([6]; 240 h, use rate 8 gai/ha, 10 DAT, read-out: % activity): 20% | pest or weed control at 2 g/ha ([6]; 432 h, ECHCG, I-3 solo 2 gai/ha, 18 DAT): 25% | inhibition at 2 g/ha ([6]; 480 h, ECHCG, 2 gai/ha, 20 DAT, read-out: % activity solo application): 5% | inhibition at 8 g/ha ([6]; 480 h, ECHCG, 8 gai/ha, 20 DAT, read-out: % activity solo application): 95% | inhibition at 2 g/ha ([6]; 480 h, ECHCG, use rate 2 gai/ha, 20 DAT, read-out: solo application % activity): 5% | inhibition at 8 g/ha ([6]; 480 h, ECHCG, use rate 8 gai/ha, 20 DAT, read-out: solo application % activity): 95%
